Results on one compound are retold here after US12661338B2, “Heterocyclic compounds as modulators of beta-catenin / TCF4 interaction” (AGENCY FOR SCIENCE, TECHNOLOGY AND RESEARCH, priority 2019, dated 2026).

The subject of assay [1] is HCT116 cells. As to the kind of experiment: Spheroid formation assay. The format is cell-based. The settings on record: HCT116, 30 μM. As for the experimental part:
HCT116, DLD-1, and SW480 cells were seeded as 150 cells in 200 μL spheroid medium per well in 96-well ultra-low attachment plates (Corning cat. #3474). The compounds were added on the day of cell seeding at a final concentration of 30 μM, 0.5% DMSO. The cells were grown at 37° C., 5% CO2 and images of the spheroids formed were taken on days 7 and 10 after cell seeding using the Operetta CLS system (Perkin Elmer).

The test system of assay [2] is CRC1414. As to the kind of experiment: Viability of primary patient-derived colorectal cancer cell line. It is filed as cell-based.
In assay [3] the test system is CRC948. The assay is described as above. The format is cell-based.
Assay [4] deals with STF cells. As to the kind of experiment: Viability (toxicity) of STF reporter cells, CCK-8. The settings on record: Table 3; STF reporter cell line. The format is cell-based. How it is done:
The Wnt STF reporter cells were seeded as 20,000 cells in 100 μL culture medium per well in 96-well plates (Corning cat. #3903, Falcon cat. #353072). The next day, 5-fold dilutions of the compounds in DMSO were added to the cells at a final concentration of 1% DMSO. The cells were also stimulated with 500 ng/mL recombinant human Wnt3A (RnD systems, cat. #5036-WN-010). After 24 hr incubation, the viability of the cells was determined with cell counting kit-8 (CCK-8, Dojindo cat. #CK04) cell viability reagent according to the manufacturer's protocol while the TOPFlash reporter activity was determined with Steady-Glo luciferase reagent.
(§1) The average signal from DMSO treated wells was calculated for each plate, and the signal from each treatment well was normalized against the average DMSO signal from the respective plate. The normalized values were plotted against the concentrations tested using GraphPad Prism 5, and the EC50 values were determined through either three- or four-parameter nonlinear regression.

For assay [5], the system named is CRC1463. As to the kind of experiment: Viability of primary patient-derived colorectal cancer cell line. The format is cell-based.
For assay [6], the system named is Wnt signalling (TOPFlash reporter, STF3A cells). As to the kind of experiment: Wnt STF3A TOPFlash reporter dose response (constitutive Wnt3A). The format is cell-based. As for the experimental part:
Wnt STF reporter cells (HEK 293 cells stably transfected with TOPFlash reporter) and STF3A reporter cells (STF cells with constitutive secretion of Wnt3A) were kind gifts from David Virshup (Duke-NUS Graduate Medical School, Singapore). HCT116, DLD-1, and SW480 cell lines were obtained from ATCC. The Hippo pathway TEAD reporter (cat. #60618) and Myc signalling pathway reporter (cat. #60520) cells lines were purchased from BPS Bioscience, Inc.
The Wnt STF3A reporter cells were seeded as 20,000 cells in 100 μL culture medium per well in 96-well plates (Corning cat. #3903, Falcon cat. #353072). The next day, 5-fold dilutions of the compounds in DMSO were added to the cells at a final concentration of 1% DMSO. After 24 hr incubation, the viability of the cells was determined with cell counting kit-8 (CCK-8, Dojindo cat. #CK04) cell viability reagent according to the manufacturer's protocol while the TOPFlash reporter activity was determined with Steady-Glo luciferase reagent.
as §1

The target in assay [7] is T1, His-tagged human β-cat (134-668) (Homo sapiens, UniProt P35222).
T1 construct: His-tagged human β-cat (134-668); made in house; host or cells: E. coli BL21(DE3)
T1 sequence (P35222 134-668): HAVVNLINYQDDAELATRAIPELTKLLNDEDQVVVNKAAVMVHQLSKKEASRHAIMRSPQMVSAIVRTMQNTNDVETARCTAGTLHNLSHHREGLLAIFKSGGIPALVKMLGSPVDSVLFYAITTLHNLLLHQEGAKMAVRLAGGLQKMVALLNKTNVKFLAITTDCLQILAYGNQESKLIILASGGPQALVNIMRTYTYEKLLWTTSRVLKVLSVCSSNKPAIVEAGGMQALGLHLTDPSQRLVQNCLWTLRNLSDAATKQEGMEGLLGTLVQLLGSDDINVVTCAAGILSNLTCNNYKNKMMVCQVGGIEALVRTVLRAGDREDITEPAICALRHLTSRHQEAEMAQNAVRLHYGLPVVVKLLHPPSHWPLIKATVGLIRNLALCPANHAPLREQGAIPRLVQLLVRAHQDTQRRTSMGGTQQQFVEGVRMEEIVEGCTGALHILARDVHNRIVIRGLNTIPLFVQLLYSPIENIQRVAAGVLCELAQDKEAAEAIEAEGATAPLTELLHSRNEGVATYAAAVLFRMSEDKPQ
As to the kind of experiment: SPR binding to β-cat. How it is done:
BL21(DE3) cells harboring pET-28 β-cat expression vector of His-tagged human β-cat (134-668) were cultured at 37° C. until OD600=0.6-0.8. The cells were then induced with 500 μM isopropyl-β-D-thiogalactopyranoside (IPTG) for 6-8 hr at 23° C. Cells were lysed by sonication in lysis buffer containing 20 mM Tris (pH 8.8), 250 mM NaCl, 2 mM DTT, 5% glycerol, 0.1% Triton X-100, and cOmplete protease inhibitor cocktail (EDTA free, Roche cat. #11873580001). The lysate was incubated with Ni-NTA agarose beads (Qiagen cat. #30210) at 4° C. for 1 hr, and the beads were then washed with lysis buffer containing 20 mM imidazole. Bound protein was eluted with buffer containing 20 mM Tris (pH 8.8), 250 mM NaCl, 0.5 mM tris(2-carboxyethyl)phosphine (TCEP), 5% glycerol, and 250 mM imidazole.
Surface plasmon resonance experiments were performed using a BIACORE T100 (GE Healthcare) on a CM5 series S sensor chip (GE Healthcare cat. #BR-1005-30). His-tagged β-cat (60 kDa, >90% pure based on SDS-PAGE) was immobilized using amine-coupling chemistry. The surfaces of flow cells one and two were activated with a 1:1 mixture of 0.1 M NHS (N-hydroxysuccinimide) and 0.1 M EDC (3-(N,N-dimethylamino) propyl-N-ethylcarbodiimide) at a flow rate of 5 μL/min. […]
(In SPR one partner is held on a chip, and binding of the other changes the refractive index at the surface.)

Assay [8] concerns CRC1258. As to the kind of experiment: Viability of primary patient-derived colorectal cancer cell line. The format is cell-based. The following applies: CRC1258, Liver Met.
For assay [9], the system named is CRC2423. The assay is described as above. The format is cell-based.

Read-outs that look alike come from different tables or passages of the source.

As for `CCc1ccc(OCc2nnc(SC3CCCC3=O)n2C(C)c2ccccc2)cc1` (centres unmarked) [GB1874], the spheroid formation result in [1] is “markedly reduce survival of the cancer stem-like cells”. Also, the EC50 (usually the concentration needed to bring the measured effect to its halfway point) is 42 µM in [2]; 17 µM in assay [3]; 27 µM in assay [5]; 27 µM in assay [8]; 30 µM in [9]. For the same compound, the IC50 (in general, the concentration that inhibits the measured activity by half) amounted to 66 µM in [4]; 26 µM in assay [6] (Table 1, STF3A reporter cells, 24 hr, read-out: IC50 Wnt (STF3A)); 27 µM in assay [6] (Table 3, STF3A reporter cell line, read-out: STF3A Inhibition IC50). Moreover, the dissociation constant (Kd) (usually the equilibrium constant for the complex coming apart) in assay [7] (SPR steady state, n=3, 25° C., read-out: dissociation constant KD) amounted to 76 ± 13 µM. In addition, the “Hill slope of the best fit curve” value in assay [7] (SPR steady-state binding curve) is reported as “greater than 1”.
